Results from patent US10787443B2, “RAF-degrading conjugate compounds” (ZAMBONI CHEM SOLUTIONS INC., priority 2017, dated 2020).
Entries after “also recorded” stand apart in the source; their conditions may differ. Structures can show the parent of a compound that is named as a salt.

test system: GST-Braf kinase domain and biotinylated E3 substrate adapter (VHL/EloB/EloC complex or CRBN318-425); assay: Dimerization assay (AlphaScreen/AlphaLisa), RAF/E3 dimerization; format: binding; conditions: Table 15; relative value; compounds 4 fold serial dilutions from 20 μM

| SMILES | RAF/E3 Dimerization |
| --- | --- |
| Cc1ncc(NC(=O)c2cccc(C(F)(F)F)c2)cc1-c1cnc(OCCOCCOCCOCCOCCOCc2cn(CCCCCC(=O)Nc3cccc4c3C(=O)N(C3CCC(=O)NC3=O)C4=O)nn2)c(N2CCOCC2)c1 (centres unmarked) [Compound 1.008, N-(6′-((1-(1-(6-((2-(2,6-dioxopiperidin-3-yl)-1,3-dioxoisoindolin-4-yl)amino)-6-oxohexyl)-1H-1,2,3-triazol-4-yl)-2,5,8,11,14-pentaoxahexadecan-16-yl)oxy)-2-methyl-5′-morpholino-[3,3′-bipyridin]-5-yl)-3-(trifluoromethyl)benzamide] | + + + |
| Cc1ncc(NC(=O)c2cccc(C(F)(F)F)c2)cc1-c1cnc(OCc2cn(CCCCCC(=O)Nc3cccc4c3C(=O)N(C3CCC(=O)NC3=O)C4=O)nn2)c(N2CCOCC2)c1 (centres unmarked) [Compound 1.001, N-(6′-((1-(6-((2-(2,6-dioxopiperidin-3-yl)-1,3-dioxoisoindolin-4-yl)amino)-6-oxohexyl)-1H-1,2,3-triazol-4-yl)methoxy)-2-methyl-5′-morpholino-[3,3′-bipyridin]-5-yl)-3-(trifluoromethyl)benzamide] | + + |

same assay, conditions: Table 17; relative value; compounds 4 fold serial dilutions from 20 μM

| SMILES | RAF/E3 Dimerization |
| --- | --- |
| Cc1ncc(NC(=O)c2cccc(C(F)(F)F)c2)cc1-c1cnc(OCCOCCOCCOCCOCCOCC(=O)N[C@@H](C(=O)N2C[C@H](O)C[C@H]2C(=O)N[C@@H](C)c2ccc(-c3scnc3C)cc2)C(C)(C)C)c(N2CCOCC2)c1 [Compound 2.001, (2S,4R)-1-((R)-2-(tert-butyl)-20-((2′-methyl-5-morpholino-5′-(3-(trifluoromethyl)-benzamido)-[3,3′-bipyridin]-6-yl)oxy)-4-oxo-6,9,12,15,18-pentaoxa-3-azaicosan-1-oyl)-4-hydroxy-N—((S)-1-(4-(4-methylthiazol-5-yl)phenyl)ethyl)pyrrolidine-2-carboxamide] | +++++ (RAF/E3 Dimerization ≥75%) |
| CCC(Cc1cnnn1CCCCCC(=O)Nc1cccc2c1C(=O)N(C1CCC(=O)NC1=O)C2=O)Oc1ncc(-c2cc(NC(=O)c3cccc(C(F)(F)F)c3)cnc2C)cc1N1CCOCC1 (racemic) [Compound 1.012, (±)-N-(6′-((1-(1-(6-((2-(2,6-dioxopiperidin-3-yl)-1,3-dioxoisoindolin-4-yl)amino)-6-oxohexyl)-1H-1,2,3-triazol-5-yl)butan-2-yl)oxy)-2-methyl-5′-morpholino-[3,3′-bipyridin]-5-yl)-3-(trifluoromethyl)benzamide] | + (5% > RAF/E3 Dimerization) |
| Cc1ncsc1-c1ccc([C@H](C)NC(=O)[C@@H]2C[C@@H](O)CN2C(=O)[C@H](NC(=O)CCOCCOCCOCCOCCOCCOCCNC(=O)c2cc(Oc3ccc(NC(=O)Nc4ccc(Cl)c(C(F)(F)F)c4)cc3)ccn2)C(C)(C)C)cc1 [Compound 1.016, 4-(4-(3-(4-chloro-3-(trifluoromethyl)phenyl)ureido)phenoxy)-N—((R)-23-((2S,4R)-4-hydroxy-2-(((S)-1-(4-(4-methylthiazol-5-yl)phenyl)ethyl)carbamoyl)pyrrolidine-1-carbonyl)-24,24-dimethyl-21-oxo-3,6,9,12,15,18-hexaoxa-22-azapentacosyl)picolinamide] | + (5% > RAF/E3 Dimerization) |
| Cc1ccc(NC(=O)c2cccc(C(F)(F)F)c2)cc1-c1cnc(OCCCCc2cn(CCCCCC(=O)Nc3cccc4c3C(=O)N(C3CCC(=O)NC3=O)C4=O)nn2)c(N2CCOCC2)c1 (centres unmarked) [Compound 2.013, N-(3-(6-(4-(1-(6-((2-(2,6-dioxopiperidin-3-yl)-1,3-dioxoisoindolin-4-yl)amino)-6-oxohexyl)-1H-1,2,3-triazol-4-yl)butoxy)-5-morpholinopyridin-3-yl)-4-methylphenyl)-3-(trifluoromethyl)benzamide] | ++ (25% > RAF/E3 Dimerization ≥ 5%) |
| CCCCCCNC(=O)Nc1cc(-c2cc3cnc(NCCCCc4cn(CCCCC(=O)N[C@@H](C(=O)N5C[C@H](O)C[C@H]5C(=O)N[C@@H](C)c5ccc(-c6scnc6C)cc5)C(C)(C)C)nn4)nc3nc2C)c(C)cc1F [Compound 2.038, (2S,4R)-1-((R)-2-(5-(4-(4-((6-(4-fluoro-5-(3-hexylureido)-2-methylphenyl)-7-methylpyrido[2,3-d]pyrimidin-2-yl)amino)butyl)-1H-1,2,3-triazol-1-yl)pentanamido)-3,3-dimethylbutanoyl)-4-hydroxy-N—((S)-1-(4-(4-methylthiazol-5-yl)phenyl)ethyl)pyrrolidine-2-carboxamide] | +++ (50% > RAF/E3 Dimerization ≥ 25) |
| Cc1ncsc1-c1ccc([C@H](C)NC(=O)[C@@H]2C[C@@H](O)CN2C(=O)[C@H](NC(=O)CCOCCOCCOCCOCCNC(=O)c2cc(Oc3ccc(NC(=O)Nc4ccc(Cl)c(C(F)(F)F)c4)cc3)ccn2)C(C)(C)C)cc1 [Compound 1.015, 4-(4-(3-(4-chloro-3-(trifluoromethyl)phenyl)ureido)phenoxy)-N-(17-((2S,4R)-4-hydroxy-2-(((S)-1-(4-(4-methylthiazol-5-yl)phenyl)ethyl)carbamoyl)pyrrolidine-1-carbonyl)-18,18-dimethyl-15-oxo-3,6,9,12-tetraoxa-16-azanonadecyl)picolinamide] | + (5% > RAF/E3 Dimerization) |
| Cc1ncc(NC(=O)c2cccc(C(F)(F)F)c2)cc1-c1cnc(OC2CCOCC2)c(N2CCN(C(=O)CCCc3cn(CCCCCC(=O)Nc4cccc5c4C(=O)N(C4CCC(=O)NC4=O)C5=O)nn3)CC2)c1 (centres unmarked) [Compound 2.049, N-(5′-(4-(4-(1-(6-((2-(2,6-dioxopiperidin-3-yl)-1,3-dioxoisoindolin-4-yl)amino)-6-oxohexyl)-1H-1,2,3-triazol-4-yl)butanoyl)piperazin-1-yl)-2-methyl-6′-((tetrahydro-2H-pyran-4-yl)oxy)-[3,3′-bipyridin]-5-yl)-3-(trifluoromethyl)benzamide] | + (5% > RAF/E3 Dimerization) |
| CNc1ncc2cc(-c3cc(NC(=O)NCCCCCCOCCOCCOCCOCC(=O)N[C@@H](C(=O)N4C[C@H](O)C[C@H]4C(=O)N[C@@H](C)c4ccc(-c5scnc5C)cc4)C(C)(C)C)c(F)cc3C)c(C)nc2n1 [Compound 2.043, (2S,4R)-1-((R)-22-(tert-butyl)-1-((2-fluoro-4-methyl-5-(7-methyl-2-(methylamino)pyrido[2,3-d]pyrimidin-6-yl)phenyl)amino)-1,20-dioxo-9,12,15,18-tetraoxa-2,21-diazatricosan-23-oyl)-4-hydroxy-N—((S)-1-(4-(4-methylthiazol-5-yl)phenyl)ethyl)pyrrolidine-2-carboxamide] | ++ (25% > RAF/E3 Dimerization ≥ 5%) |
| Cc1ncc(NC(=O)c2cccc(C(F)(F)F)c2)cc1-c1cnc(OCCOCCOCCOCC(=O)NCCOCCCc2cccc3c2CN(C2CCC(=O)NC2=O)C3=O)c(N2CCOCC2)c1 (centres unmarked) [Compound 2.020, N-(6′-((18-(2-(2,6-dioxopiperidin-3-yl)-1-oxoisoindolin-4-yl)-11-oxo-3,6,9,15-tetraoxa-12-azaoctadecyl)oxy)-2-methyl-5′-morpholino-[3,3′-bipyridin]-5-yl)-3-(trifluoromethyl)-benzamide] | +++ (50% > RAF/E3 Dimerization ≥ 25) |
| Cc1ncc(NC(=O)c2cccc(C(F)(F)F)c2)cc1-c1cnc(OCCOCCOCCOCCN[C@@H](C(=O)N2C[C@H](O)C[C@H]2C(=O)N[C@@H](C)c2ccc(-c3scnc3C)cc2)C(C)(C)C)c(N2CCOCC2)c1 [Compound 2.006, (R)-1-((2S,4R)-4-hydroxy-2-(((S)-1-(4-(4-methylthiazol-5-yl)phenyl)ethyl)carbamoyl)-pyrrolidin-1-yl)-3,3-dimethyl-N-(2-(2-(2-(2-((2′-methyl-5-morpholino-5′-(3-(trifluoro-methyl)benzamido)-[3,3′-bipyridin]-6-yl)oxy)ethoxy)ethoxy)ethoxy)ethyl)-1-oxobutan-2-aminium formate] | + (5% > RAF/E3 Dimerization) |

target: T1, CRAF (CRAF fusion protein with a fluorescent protein) in Calu-6 cells (Homo sapiens, UniProt P04049); assay: Degradation assay, fluorescent CRAF fusion protein levels in Calu-6 cells (IncuCyte S3); format: cell-based; conditions: 1.67 μM; fluorescence/confluence; FIG. 13, FIG. 14
T1 construct: fluorescent protein (green); expressed in transfected cells; host or cells: Calu-6
Description: Calu-6 cells were stably transfected with a CRAF fusion protein with a fluorescent protein attached to the C-terminus of CRAF in order to monitor protein levels via fluorescence. Cells were seeded into a 96-well plate and allowed to adhere overnight. The next day cells are treated with compounds at the doses indicated in the table below and analyzed over time. Data was collected by monitoring Fluorescent CRAF protein levels an IncuCyte S3 Live Cell Analysis System (Essen BioScience). […] Calu6_CRAF fusion protein cells are imaged and analyzed using an Incucyte S3 live-cell analysis system (Essen Biosciences). Fluorescence signal is due to expression of the fluorescent protein covalently fused to the C-terminus of CRAF and degradation is assessed by measuring fluorescence/confluence (˜cell number) after treatment with compounds of the present disclosure. Phase contrast images are analyzed using Incucyte S3 software. Percent confluence is calculated using a phase contrast mask to quantify the area of the image occupied by the Calu6_CRAF fusion protein cells. Fluorescent images are analyzed using Incucyte S3 software. Green Corrected Units (GCU) is calculated using a fluorescence mask to quantify the area of the image occupied by green fluorescent signal and the intensity of the signal. […] As discussed above, degradation is measured as a function of fluorescence/confluence.

T1 sequence (P04049 whole entry, the tested form may be a part): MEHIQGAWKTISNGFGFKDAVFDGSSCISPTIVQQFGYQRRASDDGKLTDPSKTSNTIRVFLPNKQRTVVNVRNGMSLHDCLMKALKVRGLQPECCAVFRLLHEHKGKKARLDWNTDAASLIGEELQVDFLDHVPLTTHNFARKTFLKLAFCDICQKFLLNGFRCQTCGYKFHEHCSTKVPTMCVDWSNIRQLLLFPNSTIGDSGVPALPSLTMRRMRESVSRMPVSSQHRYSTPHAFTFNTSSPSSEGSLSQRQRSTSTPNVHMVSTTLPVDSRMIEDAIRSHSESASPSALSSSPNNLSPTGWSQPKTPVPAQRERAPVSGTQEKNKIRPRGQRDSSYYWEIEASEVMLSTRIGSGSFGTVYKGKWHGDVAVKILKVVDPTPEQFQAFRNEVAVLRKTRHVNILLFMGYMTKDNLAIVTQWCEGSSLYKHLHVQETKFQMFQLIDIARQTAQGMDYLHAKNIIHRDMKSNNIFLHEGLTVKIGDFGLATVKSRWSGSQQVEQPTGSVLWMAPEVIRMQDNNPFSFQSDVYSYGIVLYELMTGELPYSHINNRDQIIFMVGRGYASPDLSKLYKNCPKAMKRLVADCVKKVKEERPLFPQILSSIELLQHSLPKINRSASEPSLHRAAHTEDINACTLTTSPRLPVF

| SMILES | CRAF degradation in Calu6 cells over time |
| --- | --- |
| Cc1ncc(NC(=O)c2cccc(C(F)(F)F)c2)cc1-c1cnc(OCCOCCOCCOCc2cn(CCCCCC(=O)N[C@@H](C(=O)N3C[C@@H](O)C[C@@H]3C(=O)N[C@@H](C)c3ccc(-c4scnc4C)cc3)C(C)(C)C)nn2)c(N2CCOCC2)c1 [Compound 2.010, (2R,4S)-1-((R)-3,3-dimethyl-2-(6-(4-((2-(2-(2-((2′-methyl-5-morpholino-5′-(3-(trifluoromethyl)benzamido)-[3,3′-bipyridin]-6-yl)oxy)ethoxy)ethoxy)ethoxy)methyl)-1H-1,2,3-triazol-1-yl)hexanamido)butanoyl)-4-hydroxy-N—((S)-1-(4-(4-methylthiazol-5-yl)phenyl)ethyl)pyrrolidine-2-carboxamide] | no CRAF degradation; also recorded: does not significantly reduce the relative amount of CRAF |

same assay, conditions: 3 μM; fluorescence/confluence; FIG. 4, 8, 9

| SMILES | CRAF degradation in Calu6 cells over time |
| --- | --- |
| Cc1ncc(NC(=O)c2cccc(C(F)(F)F)c2)cc1-c1cnc(OCCOCCOCCOCCOCCOCC(=O)N[C@@H](C(=O)N2C[C@H](O)C[C@H]2C(=O)N[C@@H](C)c2ccc(-c3scnc3C)cc2)C(C)(C)C)c(N2CCOCC2)c1 [Compound 2.001, (2S,4R)-1-((R)-2-(tert-butyl)-20-((2′-methyl-5-morpholino-5′-(3-(trifluoromethyl)-benzamido)-[3,3′-bipyridin]-6-yl)oxy)-4-oxo-6,9,12,15,18-pentaoxa-3-azaicosan-1-oyl)-4-hydroxy-N—((S)-1-(4-(4-methylthiazol-5-yl)phenyl)ethyl)pyrrolidine-2-carboxamide] | CRAF degradation |
